Laboratory results from US20070202547A1, “Methods For Detecting Substances Which Bind To The Amyloid Precursor Protein Or Beta Amyloid Fragments, And Binding Compounds” (priority 2004, published 2007).

Assays:
BACE1 = test: BACE cleavage of the full length APP; type: biochemical; conditions: result in words
BACE2 [1] = biological target: T1, BACE2 (Homo sapiens, UniProt P05067, K670N/M671F/D672E/A673V); test: BACE2 cleavage of APP at the beta-secretase cleavage site (ALPHA); type: biochemical; conditions: result in words
T1 construct: IC50, BACE2 cleavage of APP at the beta-secretase cleavage site; other: MBP-biotinylated APP fusion protein with NFEV s; activity against BACE2 cleavage of APP at the beta-secretase position; other: result in words; biotin label
Procedure: (§1) The effect of Examples 1-4 on cleavage of APP at the beta-secretase cleavage site was assayed as follows:
(§2) • 25 μL 0.2 M Sodium Acetate, pH 4.5 • 10 μL 10× protease inhibitor cocktail (Roche, cat # 1836153) • 10 μL Bovine Serum Albumin (1 mg/mL solution) • 4 μL 5% CHAPS • 1 μL EDTA (150 mM, pH 4.5) • 2 μL DF • 4 μL MBP(Maltose binding protein)—biotininylated APP fusion protein containing the NFEV BACE cleavage site (bacterially expressed, 10 μM solution) • 1 μL DMSO or compound dissolved in DMSO • 2 μL BACE2 (CHO cell expressed protein, 250 nM) • 41 μL distilled water The reactions were incubated at 37° C. for 30 minutes, and were then quenched with 4 μL 1 M TrisHCl, pH 8.0. Detection of MBP Biotin APP(NF) Cleavage Product using ALPHA ALPHA Assay Mix was Prepared as Follows: • 20 μL Streptavidin Donor Beads (from AlphaScreen General IgG (Protein A) Detection Kit Perkin Elmer Life Sciences); 10,000 pts (Part Number 6760617M) • 20 μL Protein A Acceptor beads (from AlphaScreen General IgG (Protein A) Detection Kit Perkin Elmer Life Sciences); 10,000 pts (Part Number 6760617M) • 3.7 μL Affinity purified anti-NF antibody (203 μg/mL) (described in WO 02/094985) • 4.5 mL 0.1% BSA in PBS • 4 μL of quenched reaction mixture was combined with 46 μL of the assay mix. The reactions were incubated at room temperature overnight and read using the ALPHAQuest plate reader.

BACE2 [2] = biological target: T2, BACE2 (Homo sapiens, UniProt P05067, A673V/D672E/K670N/M671F); test: as above; type: biochemical; conditions: MBP-biotinylated APP fusion protein with NFEV site, pH 4.5, 30 minutes
T2 construct: IC50, BACE2 cleavage of APP at the beta-secretase cleavage site; other: MBP-biotinylated APP fusion protein with NFEV s; activity against BACE2 cleavage of APP at the beta-secretase position; other: result in words; biotin label
Procedure: as §1, §2

EV-amyloid = biological target: T3, EV-amyloid (Homo sapiens, UniProt P05067, A673V/D672E); test: Antibody binding to EV-amyloid, ALPHA sandwich assay; conditions: 37° C., 1 hour; G2-10 and anti-NH2-EVEFR antibodies
T3 construct: An Aβ variant peptide similar to Aβ 1-40
Excerpt: Compounds interacting with secretase or antibody binding to the Aβ domain of APP (or an APP variant) nay also be expected to interact with Aβ or related amyloidogenic peptides. An Aβ variant peptide similar to Aβ 1-40, but with Glu and Val replacing the N-terminal two amino acids (hereafter referred to as “EV-amyloid”), as described in WO 02/094985 and US 2003/0200555 A1, was used to assess interactions between benzofurans and amyloid peptide. As with full length APP variant in Example 5, masking of antibody binding sites was used to assay the potential interactions.
The assay was carried out as follows:
• 1. A master mix of EV-amyloid peptide in binding buffer was made as follows: 10650 μL 0.1% bovine serum albumin in phosphate buffered saline, 1200 μL 10× Protease Inhibitor cocktail (Roche, cat # 1836153), 30 μL EV amyloid peptide (4 μM in DMSO). • 2. […] Interaction between EV amyloid and antibody was assessed by quantification of the EV amyloid peptide by antibody sandwich assay using ALPHA detection. • 7. […]
The solutions were incubated at room temperature for 1 hour prior to addition to the EV-amyloid binding reaction. • 8. […] The plate was incubated overnight, in the dark, at room temperature, and antibody binding to EV-amyloid was detected via ALPHA Quest.

| Structure (SMILES) | inhibition of BACE (BACE1) cleavage/processing of full length APP (BACE1) | activity against BACE2 cleavage of APP at the beta-secretase position (BACE2 [1]) | IC50 (BACE2 [2]) [µM] | inhibition of antibody binding to EV amyloid (EV-amyloid) |
| --- | --- | --- | --- | --- |
| O=C(O)COc1cc2c(cc1CCCOc1ccccc1Cl)OC(CCc1ccccc1)C2 (centres unmarked) [Example 2, {[6-[3-(2chlorophenoxy)propyl)-2-(2-phenylethyl)-2,3-dihydro-1-benzofuran-5-yl]oxy} acetic] | inhibit both BACE processing of APP | capable of inhibiting BACE2 cleavage of APP at the beta-secretase position with similar effectiveness to their inhibition of BACE1 cleavage at the same site | 4 | approximately 40% |
| O=C(O)COc1cc2c(cc1CCCOc1ccccc1)OC(CCc1ccccc1)C2 (centres unmarked) [Example 1, {[6-(3-phenoxypropyl)-2-(2-phenylethyl)-2,3-dihydro-1-benzofuran-5-yl]oxy} acetic acid] | inhibit both BACE processing of APP | capable of inhibiting BACE2 cleavage of APP at the beta-secretase position with similar effectiveness to their inhibition of BACE1 cleavage at the same site | 9 | approximately 40% |
